In patent publication US7713966B2, “Heterobicyclic metalloprotease inhibitors” (Alantos Pharmaceuticals Holding, Inc., priority 2006, dated 2010):
pIC50: −log10 of the molar value.

Columns and labels:
[1] = molecular target: T1, catalytic domain of MMP-13 enzyme (Homo sapiens, UniProt P45452); assay: Assay for determining MMP-13 inhibition (fluorescent substrate); format: biochemical; settings: read-out: MMP-13 Activity (IC50 MMP-13), Group
T1 construct: catalytic domain of MMP-13 enzyme (produced by Alantos or commercially available from Invitek (Berlin), Cat. # 30100812); purchased Invitek (Berlin) 30100812
Experimental: The typical assay for MMP-13 activity is carried out in assay buffer comprised of 50 mM Tris, pH 7.5, 150 mM NaCl, 5 mM CaCl2 and 0.05% Brij-35. Different concentrations of tested compounds are prepared in assay buffer in 50 μL aliquots. 10 μL of a 50 nM stock solution of catalytic domain of MMP-13 enzyme (produced by Alantos or commercially available from Invitek (Berlin), Cat. # 30100812) is added to the compound solution. The mixture of enzyme and compound in assay buffer is thoroughly mixed and incubated for 10 min at room temperature. Upon the completion of incubation, the assay is started by addition of 40 μl of a 12.5 μM stock solution of MMP-13 fluorescent substrate (Calbiochem, Cat. No. 444235). The time-dependent increase in fluorescence is measured at the 320 nm excitation and 390 nm emission by automatic plate multireader. The IC50 values are calculated from the initial reaction rates.

activated MMP-8 enzyme = molecular target: T2, activated MMP-8 enzyme (Homo sapiens, UniProt P22894); assay: Assay for determining MMP-8 inhibition (OmniMMP fluorescent substrate); format: biochemical; settings: read-out: MMP-8 Activity (IC50 MMP-8), Group
T2 construct: purchased Calbiochem 444229
T2 sequence (P22894 101-467): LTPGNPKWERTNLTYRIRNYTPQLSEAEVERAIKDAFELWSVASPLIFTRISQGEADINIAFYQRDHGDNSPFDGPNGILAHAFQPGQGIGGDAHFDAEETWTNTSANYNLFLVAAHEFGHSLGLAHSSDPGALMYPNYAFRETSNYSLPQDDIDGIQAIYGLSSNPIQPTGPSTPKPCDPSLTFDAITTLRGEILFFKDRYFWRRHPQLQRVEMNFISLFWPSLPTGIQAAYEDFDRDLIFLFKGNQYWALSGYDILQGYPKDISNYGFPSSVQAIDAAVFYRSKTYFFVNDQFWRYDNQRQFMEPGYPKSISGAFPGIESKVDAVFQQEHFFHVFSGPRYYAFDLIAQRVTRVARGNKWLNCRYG
Experimental: The typical assay for MMP-8 activity is carried out in assay buffer comprised of 50 mM Tris, pH 7.5, 150 mM NaCl, 5 mM CaCl2 and 0.05% Brij-35. Different concentrations of tested compounds are prepared in assay buffer in 50 μL aliquots. 10 μL of a 50 nM stock solution of activated MMP-8 enzyme (Calbiochem, Cat. No. 444229) is added to the compound solution. The mixture of enzyme and compound in assay buffer is thoroughly mixed and incubated for 10 min at 37° C. Upon the completion of incubation, the assay is started by addition of 40 μL of a 10 μM stock solution of OmniMMP fluorescent substrate (Biomol, Cat. No. P-126). The time-dependent increase in fluorescence is measured at the 320 nm excitation and 390 nm emission by an automatic plate multireader at 37° C. The IC50 values are calculated from the initial reaction rates.

pIC50 [1] | pIC50 (activated MMP-8 enzyme) | SMILES
4.70 to 7.00 | – | Cn1c(C(=O)NCc2ccc3c(c2)NC(=O)CO3)nc2ccccc2c1=O [2/50]
> 7.00 | – | Cc1sc2nc(C(=O)NCc3cc(Br)c4c(c3)NC(=O)CO4)[nH]c(=O)c2c1C [2/281]
4.70 to 7.00 | 4.70 to 6.60 | O=C1COc2cc(CNC(=O)c3nc4ccc(Cl)cc4c(=O)[nH]3)ccc2N1 [2/27]
– | > 6.60 | C[C@H](O)CNc1cccc2nc(C(=O)NCc3ccc4c(c3)NC(=O)CO4)[nH]c(=O)c12 [36/13]
> 7.00 | > 6.60 | Cc1sc2nc(C(=O)NCc3ccc4c(c3)NC(=NO)CO4)[nH]c(=O)c2c1C [2/275]
4.70 to 7.00 | – | O=C1COc2ccc(CNC(=O)c3nc4ccc(C(=O)Nc5ccccc5)cc4c(=O)[nH]3)cc2N1 [31/1]
> 7.00 | 4.70 to 6.60 | O=C1COc2ccc(CNC(=O)c3nc4ccc([N+](=O)[O-])cc4c(=O)[nH]3)cc2N1 [Example 2/57]
> 7.00 | 4.70 to 6.60 | O=C1COc2ccc(CNC(=O)c3nc4scc(-c5ccccc5Cl)c4c(=O)[nH]3)cc2N1 [2/101]
4.70 to 7.00 | > 6.60 | O=C1COc2ccc(CNC(=O)c3nc4cc(C(F)(F)F)ccc4c(=O)[nH]3)cc2N1 [2/43]
4.70 to 7.00 | – | Cc1sc2nc(C(=O)NCc3ccc4c(c3)NS(=O)(=O)CO4)[nH]c(=O)c2c1C [Example 38]
> 7.00 | 4.70 to 6.60 | CCOC(=O)c1c(C)sc2nc(C(=O)NCc3ccc4c(c3)NC(=O)CO4)[nH]c(=O)c12 [2/22]
> 7.00 | – | Cn1ncc2c(=O)[nH]c(C(=O)NCc3ccc4c(c3)NC(=O)CO4)nc21 [2/111]
> 7.00 | – | O=C1COc2ccc(CNC(=O)c3nc4ccc(C(=O)O)cc4c(=O)[nH]3)cc2N1 [Example 3]
– | > 6.60 | Cc1c(CCC(=O)O)sc2nc(C(=O)NCc3ccc4c(c3)NC(=O)CO4)[nH]c(=O)c12 [4/8]
4.70 to 7.00 | – | NC(=O)c1ccc2c(=O)[nH]c(C(=O)NCc3ccc4c(c3)NC(=O)CO4)nc2c1 [13/1]
> 7.00 | 4.70 to 6.60 | O=C(NCc1ccc2c(c1)CCO2)c1nc2ccccc2c(=O)[nH]1 [2/7]
> 7.00 | 4.70 to 6.60 | Nc1c(N2CCc3ccc(CNC(=O)c4nc5cc(F)c(F)cc5c(=O)[nH]4)cc3C2)c(=O)c1=O [39/24]
> 7.00 | > 6.60 | O=C(O)CCC(=O)NCc1ccc2nc(C(=O)NCc3ccc4c(c3)NC(=O)CO4)[nH]c(=O)c2c1 [Example 17]
> 7.00 | > 6.60 | C[C@@H](O)CNc1cccc2nc(C(=O)NCc3ccc4c(c3)NC(=O)CO4)[nH]c(=O)c12 [36/12]

pIC50 [1] | pIC50 (activated MMP-8 enzyme) | SMILES
> 7.00 | – | Cc1nc2c(=O)[nH]c(C(=O)NCc3ccc4c(c3)CN(c3c(N)c(=O)c3=O)CC4)nc2s1 [2/180]
> 7.00 | > 6.60 | CNC(=O)Cc1csc2nc(C(=O)NCc3ccc4c(c3)NC(=O)CO4)[nH]c(=O)c12 [2/157]
> 7.00 | – | NC(=O)[C@@H]1CCCN1c1cccc2nc(C(=O)NCc3ccc4c(c3)NC(=O)CO4)[nH]c(=O)c12 [36/8]
4.70 to 7.00 | – | O=C1COc2ccc(CNC(=O)c3nc4nonc4c(=O)[nH]3)cc2N1 [39/3]
4.70 to 7.00 | – | Cc1noc2nc(C(=O)NCc3ccc4c(c3)NC(=O)CO4)[nH]c(=O)c12 [39/12]
4.70 to 7.00 | – | Cc1nsc2nc(C(=O)NCc3ccc4c(c3)NC(=O)CO4)[nH]c(=O)c12 [2/136]
> 7.00 | > 6.60 | CCc1ccc2nc(C(=O)NCc3ccc4c(c3)NC(=O)CO4)[nH]c(=O)c2c1 [2/70]
> 7.00 | 4.70 to 6.60 | O=C(NCc1ccc2c(c1)OCO2)c1nc2ccccc2c(=O)[nH]1 [Example 2/5]
> 7.00 | 4.70 to 6.60 | CCOC(=O)c1sc2nc(C(=O)NCc3ccc4c(c3)NC(=O)CO4)[nH]c(=O)c2c1C [2/28]
– | 4.70 to 6.60 | Cc1cccc2nc(C(=O)NCc3cccc(CNc4c(N)c(=O)c4=O)c3)[nH]c(=O)c12 [Example 2/15]
4.70 to 7.00 | – | O=C1COc2ccc(CNC(=O)c3nc4snnc4c(=O)[nH]3)cc2N1 [39/6]
> 7.00 | – | Cc1c(CO)sc2nc(C(=O)NCc3ccc4c(c3)NC(=O)CO4)[nH]c(=O)c12 [Example 20a]
> 7.00 | – | O=C1COc2ccc(CNC(=O)c3nc4ccc(-c5nnn[nH]5)cc4c(=O)[nH]3)cc2N1 [Example 11]
4.70 to 7.00 | 4.70 to 6.60 | O=C(NCc1ccc2c(c1)OC(F)(F)O2)c1nc2ccccc2c(=O)[nH]1 [2/6]
> 7.00 | – | CC(=O)OCc1sc2nc(C(=O)NCc3ccc4c(c3)N(C(C)=O)CCO4)[nH]c(=O)c2c1C [Example 24]
> 7.00 | > 6.60 | C=Cc1ccc2nc(C(=O)NCc3ccc4c(c3)NC(=O)CO4)[nH]c(=O)c2c1 [2/69]
> 7.00 | > 6.60 | O=C1COc2ccc(CNC(=O)c3nc4cc([N+](=O)[O-])ccc4c(=O)[nH]3)cc2N1 [39/22]
> 7.00 | > 6.60 | Cc1c(C(C)O)sc2nc(C(=O)NCc3ccc4c(c3)NC(=O)CO4)[nH]c(=O)c12 (centres unmarked) [Example 21]
4.70 to 7.00 | – | COc1cccc2c(=O)[nH]c(C(=O)NCc3ccc4c(c3)NC(=O)CO4)nc12 [39/21]

pIC50 [1] | pIC50 (activated MMP-8 enzyme) | SMILES
4.70 to 7.00 | – | Cc1c(C(=O)O)sc2nc(C(=O)NCc3ccc4c(c3)NC(=O)CO4)[nH]c(=O)c12 [4/2]
> 7.00 | – | Cc1csc(-c2csc3nc(C(=O)NCc4ccc5c(c4)NC(=O)CO5)[nH]c(=O)c23)n1 [2/379]
> 7.00 | – | Cc1nc2c(=O)[nH]c(C(=O)NCc3ccc4c(c3)NC(=O)CO4)nc2s1 [2/179]
– | > 6.60 | NC(=O)Cc1csc2nc(C(=O)NCc3ccc4c(c3)NC(=O)CO4)[nH]c(=O)c12 [Example 2/156]
– | 4.70 to 6.60 | Cc1cccc2nc(C(=O)NCc3ccc(F)c(CNc4c(N)c(=O)c4=O)c3)[nH]c(=O)c12 [2/17]
> 7.00 | – | NCc1ccc2nc(C(=O)NCc3ccc4c(c3)NC(=O)CO4)[nH]c(=O)c2c1 [Example 15]
4.70 to 7.00 | – | Cc1sc2nc(C(=O)NCc3ccc4c(c3)NC(=O)CO4)[nH]c(=O)c2c1C(=O)O [4/1]
– | > 6.60 | C[C@@H](Nc1cccc2nc(C(=O)NCc3ccc4c(c3)NC(=O)CO4)[nH]c(=O)c12)C(=O)OC(C)(C)C [36/6]
4.70 to 7.00 | – | CCOC(=O)c1sc2nc(C(=O)NCc3ccc4c(c3)NCCO4)[nH]c(=O)c2c1C [Example 20b]
> 7.00 | – | O=C1COc2ccc(CNC(=O)c3nc4scc(-c5ccc(-c6ccccc6)cc5)c4c(=O)[nH]3)cc2N1 [2/138]
> 7.00 | – | O=C1COc2ccc(CNC(=O)c3nc4cccc(C(F)(F)F)c4c(=O)[nH]3)cc2N1 [39/1]
> 7.00 | – | O=C1COc2ccc(CNC(=O)c3nc4c(Br)cc(F)cc4c(=O)[nH]3)cc2N1 [39/23]
4.70 to 7.00 | – | COc1cc2nc(C(=O)NCc3ccc4c(c3)NC(=O)CO4)[nH]c(=O)c2cc1OC [2/65]
4.70 to 7.00 | – | CCOC(=O)Cc1c([N+](=O)[O-])sc2nc(C(=O)NCc3ccc4c(c3)CN(c3c(N)c(=O)c3=O)CC4)[nH]c(=O)c12 [2/164]
> 7.00 | – | O=C1COc2ccc(CNC(=O)c3nc4ccc(C#Cc5ccccc5)cc4c(=O)[nH]3)cc2N1 [Example 8/1]
4.70 to 7.00 | – | O=C1COc2cc(CNC(=O)c3nc4ccccc4c(=O)[nH]3)ccc2N1 [2/205]
> 7.00 | – | O=C1COc2ccc(CNC(=O)c3nc4sccc4c(=O)[nH]3)cc2N1 [Example 1]
4.70 to 7.00 | – | CC(=O)N1CCOc2ccc(CNC(=O)c3nc4sc(CO)c(C)c4c(=O)[nH]3)cc21 [Example 25]
